The values below come from patent publication US20180185476A1, “METHODS AND PHARMACEUTICAL COMPOSITIONS FOR INHIBITING LYMPHOCYTE PROLIFERATION IN A SUBJECT IN NEED THEREOF” (INSERM (Institut National de la Sante et de la Recherche …, priority 2013, published 2018).

“Also recorded” adds a separate entry of the source.

For one assay, the system named is CTPS1-deficient cells. As to the kind of experiment: Proliferation and CD25 expression of CTPS1-deficient T cells after addition of nucleotides or nucleosides. It counts as cell-based, human. The following applies: addition of nucleotides or nucleosides before stimulation. From the text: (§1) Informed consent was obtained from donors, patients and families of patients. The study and protocols conform to the 1975 declaration of Helsinki as well as to local legislation and ethical guidelines. Genomic DNA extracted from peripheral blood cells was used for whole exome sequencing (Illumina) and sequencing of CTPS1. PBMCs were Ficoll-purified and activated with phytohemagglutinin (PHA) for 3 days, and then cultured in RPMI medium supplemented with 5% type AB human serum and IL-2 (100 UI/ml). T-cell blasts were restimulated with various mitogens and analyzed for memory and activation markers, calcium flux, cytokine secretions, apoptosis and TCR-CD3 signaling cascade molecules by immunoblotting. CTPS1 protein was detected by immunoblotting with an antibody raised against residues in the middle of the protein (341 to 355) (#SAB111071, Sigma). […] Proliferation was assessed after 96 hours by monitoring the dilution of CellTrace violet dye labelling. Cell cycle was determined by measuring the incorporation of EdU into newly synthesized DNA during 40 hours. The division indexes were calculated with the Flowjo software (BD Biosciences). For gene silencing of CTPS1 by shRNA expression (Openbiosystems), cells were transduced at day 3 of PHA stimulation. For rescue experiments, CTPS1-deficient cells were transduced with a lentiviral vector (Invitrogen) containing the CTPS1 gene and proliferation was performed 5 days after transduction. In long-term expansions, cells were repeatedly stimulated with CD3/CD28-coated beads every 48 h and the transduced GFP^+ cells in the cultures were determined by every 24 h. The intracellular content of nucleotides was measured by liquid chromatography-mass spectrometry (UPLC-xevoTQS, Waters). P values were calculated by two-tailed Student's t-test using PRISM software (GraphPad).

The next assay deals with control T-cells. In words: T-cell proliferation in response to CD3 activation (CellTrace violet dye dilution). The assay is classed as cell-based, human. As to conditions: nucleotide added to deazauridine-treated control T cells.
From the text: as §1, with “For gene silencing of CTPS1 by shRNA expression (Openbiosystems), cells were transduced at day 3 of PHA stimulation. For rescue experiments, CTPS1-deficient cells were transduced with a lentiviral vector (Invitrogen) containing the CTPS1 gene and proliferation was performed 5 days after transduction.” left out, “The intracellular content of nucleotides was measured by liquid chromatography-mass spectrometry (UPLC-xevoTQS, Waters). P values were calculated by two-tailed Student's t-test using PRISM software (GraphPad).” left out

For `Nc1ccn([C@@H]2O[C@H](CO)[C@@H](O)[C@H]2O)c(=O)n1` [cytidine], in the assay with CTPS1-deficient cells, the “CD25 expression of CTPS1-deficient cells” value is listed as “recovered to a normal level” and the “proliferation of CTPS1-deficient cells” value is listed as “recovered to a normal level; also recorded: restored”.

Take `O=c1ccn([C@@H]2O[C@H](COP(=O)(O)OP(=O)(O)OP(=O)(O)O)[C@@H](O)[C@H]2O)c(=O)[nH]1` [UTP]: the “reversion of the inhibition of T-cell proliferation by deazauridine” value in the assay on control T-cells was “partially”.

On to `Nc1ccn([C@@H]2O[C@H](COP(=O)(O)OP(=O)(O)OP(=O)(O)O)[C@@H](O)[C@H]2O)c(=O)n1` [CTP, cytidine nucleotide triphosphate], for which the “reversion of the inhibition of T-cell proliferation by deazauridine” value with control T-cells was “fully reverted”. Also, in the assay with CTPS1-deficient cells, the “CD25 expression of CTPS1-deficient cells” value is listed as “recovered to a normal level” and the “proliferation of CTPS1-deficient cells” value is “recovered to a normal level; also recorded: restored to normal level”.
